Entries after “also recorded” stand apart in the source; their conditions may differ. Non-standard residues stand in square brackets, D forms with d. No end group written: not given here. βF = beta phenylalanine (beta-amino acid)
Assays:
[1] = tested on: MOG-specific T-cells (spleen cells from MOG T-cell receptor transgenic (2D2) mice); assay: Proliferation assay, 3H-thymidine incorporation; type: cell-based, mouse; settings: for T-cell proliferation (proliferative response): free peptide or 500 nm silica NPs, up to 8 ug/ml
Experimental: Spleens were dissected from MOG T-cell receptor transgenic mice expressing the transgenic V3.2α/Vβ11 T-cell receptor specific for MOG35-55 peptide ([…]) in the context of 1-A^b. Single cell suspensions were prepared in complete RPMI medium containing 10% heat inactivated FBS, 2 mM L-glutamine, 100 U/ml penicillin, 100 μg/ml streptomycin, 50 μM 2-mercaptoethanol and 1 mM sodium pyruvate (Sigma). Following red blood cell lysis, splenocytes were seeded in triplicate in 96-well, flat bottom microtiter plates (Nunc) at a concentration of 2.5×10^5 cells per well. Splenocytes were cultured in medium alone or in the presence of increasing doses of MOG35-55 or nanoparticles. Cells were incubated at 37° C. for 72 hr with the addition of 1 μCi/well [3H]-thymidine (Perkin Elmer) for the last 18 hr of culture. Cells were harvested onto filter mats (Perkin Elmer) and incorporated radioactive nucleic acids counted using a Top Count NXT Scintillation Counter (Packard Biosciences).

C57Bl/6 EAE mice [2] = assay: Histological analysis of CNS tissue of C57Bl/6 EAE mice; type: in vivo, mouse; parameters: key to Axonal damage: 0 = no axonal pathology, 3 = severe axonal pathology; key to Demyelination score: 0 = no demyelination, 3 = severe demyelination; settings: for Axonal damage / Demyelination score / Inflammation score: mean ± SEM; for CNS inflammation, demyelination and axonal damage: 500 nm NPs, versus bare NPs or scrambled MOG37-52 NPs
Experimental: (§1) For histological analysis of CNS tissue, the brain and spinal cord were dissected from mice then fixed in 10% formalin (Sigma) for 24-48 h. Tissue was then processed and embedded in paraffin wax. Serial sections (5 μm) were cut from paraffin-embedded tissues and stained with hematoxylin and eosin, luxol fast blue and Bielschowsky silver impregnation to assess inflammation, demyelination and axonal damage, respectively. Sections were scored blind for semi-quantitative histological analysis of inflammation as follows: 0, no inflammation: 1, cellular infiltrate only in the perivascular areas and meninges; 2, mild cellular infiltrate in parenchyma: 3, moderate cellular infiltrate in parenchyma; 4, severe cellular infiltrate in parenchyma. Demyelination and axonal pathology were assessed by pale staining and scored blind as follows: 0, no demyelination/axonal pathology: 1, mild demyelination/axonal pathology; 2, moderate demyelination-axonal pathology; 3, severe demyelination/axonal pathology.

NOD/Lt EAE mice [3] = assay: Histological analysis of CNS tissue of NOD/Lt EAE mice; type: in vivo, mouse; parameters: key to Axonal damage: 0 = no axonal pathology, 3 = severe axonal pathology; key to Demyelination score: 0 = no demyelination, 3 = severe demyelination; settings: 200 nm silica peptide nanoparticles, mean ± SEM
Experimental: as §1

C57Bl/6 EAE mice [4] = assay: EAE induction and clinical scoring, MOG35-55-induced EAE in C57Bl/6 mice (chronic progressive model); type: in vivo, mouse; settings: for Disease incidence / Mortality: fraction of total; for Cumulative score / Day disease onset / Maximum score / Score at termination: mean ± SEM; for daily mean clinical score compared to controls: treatment prior to induction of EAE
NOD/Lt EAE mice [5] = assay: EAE induction and clinical scoring, recombinant mouse MOG-induced EAE in NOD/Lt mice (relapsing remitting model); type: in vivo
[6] = 200 nm silica peptide nanoparticles
[7] = 500 nm silica peptide nanoparticles
[8] = 500 nm silica peptide nanoparticles, i.v. day -7 and -1
[9] = 200 nm silica peptide nanoparticles, NOD/Lt, fraction of total
[10] = 200 nm silica peptide nanoparticles, NOD/Lt, mean ± SEM

“MEVGWYRSPFSRVVHLYRNGK [MOG35-55, encephalitogenic mouse MOG peptide, free peptide, reference compound]” was tested, and the “T-cell proliferation (proliferative response)” value (“T-cell proliferation” for short) [1] was “robust proliferation response”.

“MOG37-52: silica nanoparticles coated with mouse MOG37-52 peptide VGWYRSPFSRVVHLYR; 500 nm in Table 1, 200 nm in Tables 2 and 3” was tested, and the “axonal damage compared to bear, scrambled MOG37-52 or ovalbumin nanoparticles” value (C57Bl/6 EAE mice [2]; 200 nm silica nanoparticles) was “significantly reduced axonal damage”, the “inflammation compared to bear nanoparticles” value (C57Bl/6 EAE mice [2]; 200 nm silica nanoparticles) was “significantly reduced inflammation” and the Axonal damage (C57Bl/6 EAE mice [2]; [6]) was 1.35 ± 0.1833 # ^∧∧∧. The Demyelination score (C57Bl/6 EAE mice [2]; [6]) was 1.85 ± 0.2242, the Inflammation score (C57Bl/6 EAE mice [2]; [6]) was 2.275 ± 0.3772^∧ and the “CNS inflammation, demyelination and axonal damage” value (C57Bl/6 EAE mice [2]) was “reduction in CNS inflammation, demyelination and axonal damage; also recorded: significantly reduced inflammation, demyelination and axonal damage”. The Axonal damage (C57Bl/6 EAE mice [2]; [7]) was 1.208 ± 0.2275 ^∧∧, the Demyelination score (C57Bl/6 EAE mice [2]; [7]) was 0.833 ± 0.8333 ^** ∧∧∧∧ and the Inflammation score (C57Bl/6 EAE mice [2]; [7]) was 1.542 ± 0.2275 ^* ∧∧. The Axonal damage (NOD/Lt EAE mice [3]) was 2.833 ± 0.1667, the Demyelination score (NOD/Lt EAE mice [3]) was 2.917 ± 0.0833 and the Inflammation score (NOD/Lt EAE mice [3]) was 4.167 ± 0.1667. For the same substance, the “effect on clinical disease” value (C57Bl/6 EAE mice [4]; 200 nm NPs, C57BL/6 mice) was “significant effect on clinical disease”, the Disease incidence (C57Bl/6 EAE mice [4]; [6]) was 10/10 and the Mortality (C57Bl/6 EAE mice [4]; [6]) was 0/10. The Cumulative score (C57Bl/6 EAE mice [4]; [6]) was 33.05 ± 2.086 ∧∧∧∧, the Day disease onset (C57Bl/6 EAE mice [4]; [6]) was 15.70 ± 1.334 and the Maximum score (C57Bl/6 EAE mice [4]; [6]) was 2.50 ± 0.1667^∧. The Score at termination (C57Bl/6 EAE mice [4]; [6]) was 1.45 ± 0.2930^∧∧∧, the “daily mean clinical score compared to controls” value (C57Bl/6 EAE mice [4]; 500 nm NPs) was “significant reduction” and the Disease incidence (C57Bl/6 EAE mice [4]; [8]) was 6/6. For the same substance, the Mortality (C57Bl/6 EAE mice [4]; [7]) was 0/6, the Cumulative score (C57Bl/6 EAE mice [4]; [7]) was 26.00 ± 8.039 ^** and the Day disease onset (C57Bl/6 EAE mice [4]; [7]) was 17.17 ± 2.151. For the same substance, the Maximum score (C57Bl/6 EAE mice [4]; [7]) was 2.00 ± 0.3873, the Score at termination (C57Bl/6 EAE mice [4]; [7]) was 1.083 ± 0.3270 and the disease severity (NOD/Lt EAE mice [5]; 200 nm NPs, NOD/Lt mice) was “significantly reduced disease severity”. The Disease incidence (NOD/Lt EAE mice [5]; [9]) was 6/6, the Mortality (NOD/Lt EAE mice [5]; [9]) was 0/6 and the Cumulative score (NOD/Lt EAE mice [5]; [10]) was 30.50 ± 3.266^∧∧ ^##. For the same substance, the Day disease onset (NOD/Lt EAE mice [5]; [10]) was 17.33 ± 2.23, the Maximum score (NOD/Lt EAE mice [5]; [10]) was 2.667 ± 0.1667^∧ and the Score at termination (NOD/Lt EAE mice [5]; [10]) was 2.25 ± 0.2814^∧. The proliferative response ([1]; 200 nm NPs) was “did not induce a proliferative response that was above background levels” and the “T-cell proliferation” value [1] was “comparable proliferative response; also recorded: comparable to the MOG37-52 peptide”.

With “MOG44BF: 500 nm silica nanoparticles coated with MOG44βF peptide VGWYRSPβFSRVVHLYR (VGWYRSP[βF]SRVVHLYR; also: coated on 500 nm silica nanoparticles)” the “CNS inflammation, demyelination and axonal damage” value (C57Bl/6 EAE mice [2]) was “reduction in CNS inflammation, demyelination and axonal damage; also recorded: significantly reduced inflammation, demyelination and axonal damage”, the Axonal damage (C57Bl/6 EAE mice [2]; [7]) was 0.5833 ± 0.2007 ∧∧∧∧ and the Demyelination score (C57Bl/6 EAE mice [2]; [7]) was 0.375 ± 0.08539^### *** ∧∧∧∧. For the same substance, the Inflammation score (C57Bl/6 EAE mice [2]; [7]) was 0.7917 ± 0.2694^### *** ∧∧∧∧, the “therapeutic effect compared to MOG37-52 coated NPs (onset, disease severity)” value (C57Bl/6 EAE mice [4]; 500 nm NPs) was “more significant therapeutic effect” and the “daily mean clinical score compared to controls” value (C57Bl/6 EAE mice [4]; 500 nm NPs) was “significant reduction”. For the same substance, the Disease incidence (C57Bl/6 EAE mice [4]; [8]) was 2/6, the Mortality (C57Bl/6 EAE mice [4]; [7]) was 0/6 and the Cumulative score (C57Bl/6 EAE mice [4]; [7]) was 5.417 ± 3.967 ^**** ∧∧∧. For the same substance, the Day disease onset (C57Bl/6 EAE mice [4]; [7]) was 29.17 ± 3.710^++ ^### *** ∧∧∧, the Maximum score (C57Bl/6 EAE mice [4]; [7]) was 0.4167 ± 0.3270^++ ^*** ∧∧∧ and the Score at termination (C57Bl/6 EAE mice [4]; [7]) was 0.1667 ± 0.1054 # ^∧. The “T-cell proliferation” value ([1]; listed as MOG440F) was “not capable of stimulating T-cell proliferation” and the “T-cell proliferation” value ([1]; listed as MOG441F) was “did not induce a robust proliferative response”.

From US20200246441A1, “COMPOSITIONS AND METHODS FOR AUTOIMMUNE DISEASE TREATMENT” (AMRITA VISHWA VIDYAPEETHAM, priority 2016, published 2020)
